Measurements: US10363263B2, “Anti-aging compositions and methods for using same” (Prescient Pharma LLC, priority 2015, dated 2019)

Legend:
[1] = test system: normal human colon fibroblast cell line CCD 841 CoN (CRL-1790, ATCC); test: Senescence beta-galactosidase staining of aged normal human colon fibroblasts (Examples 1 and 2); format: cell-based; conditions: 48 hours; for effect on beta-galactosidase staining in comparison with non-treated controls: monotherapy, 0.15 μM lithium carbonate or 0.25 mM glycyrrhizic acid; for visible positive beta-galactosidase staining (FIGS. 1-4): visual, light microscope 100×, 0.15 μM lithium carbonate and/or 0.25 mM glycyrrhizic acid
Description: Aging-associated beta-galactosidase is widely used as a biomarker of senescence. Here we investigated senescence-associated-beta-galactosidase activity of human colon fibroblast cells by visual assessment.
In this Example, the effect of treatment with lithium and glycyrrhizic acid separately, and as a fixed combination, was evaluated on normal human colon fibroblast cell line CCD 841 CoN (CRL-1790, ATCC).
Group 4 (flasks 10-12, control), the medium was changed to fresh compete EMEM medium without drugs as controls.
FIGS. 1-4 show pictures of the staining results for each of the groups, respectively.
Digital pictures showing the staining results for each of the 12 flasks were then independently examined and scored for percentage of area of green (positive) staining based on pixels, with and without background subtraction.
Higher values reflect more intensive green staining which corresponds to more aged cells.
Group#9 contained complete EMEM medium with glycyrrhizic acid 0.25 mM.
Group#10 contained complete EMEM medium only and was used as a control.
FIGS. 6-15 show pictures of the staining results for each of the groups, respectively.

[2] = test system: wild-type N2 Bristol strain of C. elegans; test: C. elegans longevity study (Example 4); format: in vivo; conditions: for longevity effect: monotherapy; for Restricted mean Days (survival): control 15.53
Description: In this fourth Example, the effect of treatment with lithium and Glycyrrhizic acid separately, and as a fixed combination, was further evaluated on the wild-type N2 Bristol strain of C. elegans. Worm stocks were maintained on nematode growth medium (NGM) dishes containing 10 μg/mL cholesterol (Cat. No. C8667; Sigma-Aldrich, Saint Louis, Mo., USA). Dishes were seeded with OP50 Escherichia coli as a food source. Twelve polystyrene petri dishes (35 mm diameter) were prepared by filling with NGM agar containing […] cholesterol, and 25 μM 5-Fluoro-2′-deoxyuridine to suppress reproduction (FUDR; Cat. No. F0503; Sigma-Aldrich, Saint Louis, Mo., USA). The dishes were seeded with OP50 Escherichia coli as a food source. Duplicate dishes were used for each group. The treatment drug was dissolved in deionized water, and added to the dishes for the groups as explained below: […] Group#5: Glycyrrhizic acid in concentration of 0.25 mM Group#6: untreated (control) NGM-agar treatment plates containing cholesterol (10 μg/mL) and 25 μM 5-Fluoro-2′-deoxyuridine (FUDR; Cat. No. F0503; Sigma-Aldrich, Saint Louis, Mo., USA) to suppress reproduction. […] The survival data for the various groups are also depicted in FIG. 17.

[3] = lithium carbonate 15 or 0.15 μM as in the label, Ga = glycyrrhizic acid 0.25 mM
[4] = lithium carbonate 15 or 0.15 μM as in the label, Ga = glycyrrhizic acid 0.25 mM, listed as Li0.15 uM
[5] = lithium carbonate 15 or 0.15 μM as in the label, Ga = glycyrrhizic acid 0.25 mM, listed as Li15 uM

Row | Compound | effect on beta-galactosidase staining in comparison with non-treated controls [1] | visible positive beta-galactosidase staining (FIGS. 1-4) [1] | Age in days at 100% mortality [2, 3] | longevity effect [2] | Age in days at 50% mortality [2, 3] | Age in days at 75% mortality [2, 3] | Age in days at 90% mortality [2, 3] | Restricted mean Days (survival) [2, 4] | Restricted mean Days (survival) [2, 5] | Age in days at 25% mortality [2, 4] | Age in days at 25% mortality [2, 5]
1 | CC1(C)[C@@H](O[C@H]2O[C@H](C(=O)O)[C@@H](O)[C@H](O)[C@H]2O[C@@H]2O[C@H](C(=O)O)[C@@H](O)[C@H](O)[C@H]2O)CC[C@]2(C)[C@H]3C(=O)C=C4[C@@H]5C[C@@](C)(C(=O)O)CC[C@]5(C)CC[C@@]4(C)[C@]3(C)CC[C@@H]12 [glycyrrhizic acid, (3β,20β)-20-carboxy-11-oxo-30-norolean-12-en-3-yl 2-O-β-D-glucopyranuronosyl-α-D-glucopyranosiduronic acid] | did not appear to have significant effect | stained positively | 20 days | not observed |  |  |  |  |  |  | 
2 | O=C([O-])[O-].[Li+].[Li+] [lithium carbonate] | did not appear to have significant effect | stained positively | 19 days | not observed | 15 days | 16 days | 18 days | 14.88 days | 14.56 days | 13 days | 14 days
